Data taken from patent publication US11382956B2, “Amylin analogues” (Zealand Pharma A/S, priority 2016, dated 2022).
Numbered stars: 1 amine (or outer) side, 2 acyl side, 3 side chain; on linkers, the order of the positions; unused ones are H or OH. Bridge positions count the residues as written; N and C are the ends. Square brackets hold non-standard residues; d marks the D form. Peptide text beside a SMILES is read from it. * marks the point of attachment. C20 diacid = O=C(O)CCCCCCCCCCCCCCCCCCC(=O)*; γGlu = O=C(O)[C@H](CCC(=O)[*:2])N[*:1]; Hyp = O=C(O)[C@@H]1C[C@@H](O)CN1; NMeI = CC[C@H](C)[C@H](NC)C(=O)O; Orn = NCCC[C@H](N)C(=O)O; Sar = CNCC(=O)O

Columns and labels:
[1] = molecular target: T1, recombinant human amylin 3 receptor (hAMYR3) (Homo sapiens, UniProt O60896+P30988); experiment: hAMYR3 cAMP assay (AlphaScreen) in 1321N1 cells; format: cell-based; conditions: cAMP formation, 45 min stimulation
T1 construct: host or cells: human astrocytoma cell line 1321N1
T1 sequence (P30988 25-474): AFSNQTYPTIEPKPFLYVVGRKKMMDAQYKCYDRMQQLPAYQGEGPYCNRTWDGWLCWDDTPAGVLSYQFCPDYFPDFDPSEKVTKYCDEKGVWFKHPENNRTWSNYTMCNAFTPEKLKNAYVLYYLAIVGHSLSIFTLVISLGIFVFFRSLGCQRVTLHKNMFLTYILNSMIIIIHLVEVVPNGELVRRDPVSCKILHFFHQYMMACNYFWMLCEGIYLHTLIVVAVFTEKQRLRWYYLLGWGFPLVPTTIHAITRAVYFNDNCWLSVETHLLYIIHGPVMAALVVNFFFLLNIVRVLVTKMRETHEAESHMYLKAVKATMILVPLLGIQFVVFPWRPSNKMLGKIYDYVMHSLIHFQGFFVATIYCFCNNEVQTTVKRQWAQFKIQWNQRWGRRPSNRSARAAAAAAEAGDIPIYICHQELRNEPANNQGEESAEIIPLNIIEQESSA
T1 sequence (O60896 24-148 partner): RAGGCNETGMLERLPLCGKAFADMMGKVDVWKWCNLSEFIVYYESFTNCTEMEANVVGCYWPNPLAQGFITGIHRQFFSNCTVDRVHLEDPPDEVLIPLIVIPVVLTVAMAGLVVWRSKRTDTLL
Method in brief: (§1)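 EC50 values come from curve fits over at least 7 peptide concentrations, with cAMP read by AlphaScreen competition after 1 h in the dark. Cells were 1321N1 lines carrying human calcitonin receptor, with RAMP3 co-expressed for AMY3, treated 45 min at room temperature in the presence of IBMX.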

[2] = Pharmacokinetic (PK) profiling in rats; conditions: male, Sprague Dawley, plasma; rat, single sc bolus 30 nmol/kg; read-out: in vivo half life t1/2 (plasma terminal elimination half-life) (converted)
Description: Sprague Dawley male rats were given a single subcutaneous (sc) bolus of each peptide to be tested, as specified below.
30 nmol/kg doses of compound were administered. Blood samples were drawn from the tail vein prior to dosing and at 24 and 96 hours after dosing. The rats were euthanized immediately after the last blood sampling by concussion and cervical dislocation.
The dosing vehicle used for each test peptide was a mannitol-containing histidine buffer (pH 7.0). Plasma samples were analyzed after precipitation with ethanol by liquid chromatography mass spectrometry (LC-MS/MS). Mean plasma concentrations were used for calculation of the pharmacokinetic parameters.
Plasma terminal elimination half-life (t1/2) was determined as In(2)/λz, where λz is the magnitude of the slope of the log linear regression of the log concentration versus time profile during the terminal phase.

[3] = Effect on acute food intake and body weight in normal Sprague Dawley rats; format: in vivo, Sprague Dawley (SD) rats; conditions: Dose: 30 nmol/kg sc, vehicle-corrected
[4] = Assessment of chemical stability in 40 mM buffers at 40° C. (RP-HPLC); format: physicochemical; conditions: 1 mg/mL; for % degradation after 72 h at 40° C. pH4 acetate: acetate buffer pH 4, 72 h; for % degradation after 72 h at 40° C. pH6 phosphate: phosphate buffer pH 6, 72 h; for % degradation after 14 days at 40° C. pH6 phosphate: phosphate buffer pH 6, 14 days; for % degradation after 72 h at 40° C. pH7 phosphate: phosphate buffer pH 7, 72 h
Method in brief: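 Degradation is the main-peak area-% at each time point minus that at t=0, measured by C8 reversed-phase HPLC (TFA/acetonitrile/water gradient, 220 nm). Incubation at 40° C for 3 or 14 days, 1 mg/mL peptide in 40 mM buffer at pH 4, 6 or 7.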

[5] = Assessment of physical stability: fibril formation by Thioflavin T fluorescence; format: physicochemical; design: key: FND = fibrillation not detected; FD = fibrillation detected; conditions: 1 mg/mL peptide; for Fibrillation (in buffer) pH4 acetate: 50 mM acetate buffer pH 4.0, 96 hours at 40° C.; for Fibrillation (in buffer) pH7 histidine: 50 mM histidine buffer pH 7.0, 96 hours at 40° C.; for Fibrillation (in buffer) pH7 phosphate: 50 mM phosphate buffer pH 7.0, 96 hours at 40° C.
Method in brief: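 Fibrillation detected (FD) means a significant rise in ThT fluorescence over 96 hours at 40° C, read at 10 min intervals each preceded by 300 s automixing. Samples: 1 mg/mL peptide, 40 μM ThT, in 50 mM phosphate or histidine (pH 7.0) or acetate (pH 4.0), triplicate.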

[6] = molecular target: T2, recombinant human calcitonin receptor (hCT-R) (Homo sapiens, UniProt P30988); experiment: hCT-R cAMP assay (AlphaScreen) in 1321N1 cells; format: cell-based; conditions: cAMP formation, 45 min stimulation
T2 construct: host or cells: human astrocytoma cell line 1321N1
T2 sequence (P30988 25-474): T1 sequence (P30988 25-474)
Method in brief: as §1

[7] = WO99/34764; cited from earlier work
[8] = cited from earlier work

EC50 [1]	half-life [2]	% degradation after 72 h at 40° C. pH4 acetate [4]	% degradation after 14 days at 40° C. pH4 acetate ([4]; acetate buffer pH 4, 14 days)	% degradation after 72 h at 40° C. pH6 phosphate [4]	% degradation after 14 days at 40° C. pH6 phosphate [4]	% degradation after 72 h at 40° C. pH7 phosphate [4]	% degradation after 14 days at 40° C. pH7 phosphate ([4]; phosphate buffer pH 7, 14 days)	Fibrillation (in buffer) pH4 acetate [5]	Fibrillation (in buffer) pH7 histidine [5]	Fibrillation (in buffer) pH7 phosphate [5]	EC50 [6]	Compound	Body weight reduction in % at 48 h [3]	Food intake reduction in % at 48 h [3]	potency compared with other amylin analogues and human amylin [7]	effect on body weight in human trials [8]
0.092 nM	31.9 h	<1%	1.6%	<1%	<1%	<1%	6.4%	FND	FND	FND	0.16 nM	CC[C@H](C)[C@@H](C(=O)N[C@@H](CC(C)C)C(=O)N[C@@H](CO)C(=O)N[C@@H](CO)C(=O)N[C@H](C(=O)N[C@@H](CCC(=O)O)C(=O)N[C@H](C(=O)NCC(=O)N[C@@H](CO)C(=O)N[C@@H](CC(N)=O)C(=O)N[C@H](C(=O)N1C[C@H](O)C[C@H]1C(N)=O)[C@@H](C)O)C(C)C)[C@@H](C)O)N(C)C(=O)[C@H](C)NC(=O)CN(C)C(=O)[C@H](Cc1ccccc1)NC(=O)[C@H](CO)NC(=O)[C@H](CO)NC(=O)[C@H](CCCNC(=N)N)NC(=O)[C@H](CCC(N)=O)NC(=O)[C@H](CC(C)C)NC(=O)[C@H](Cc1ccccc1)NC(=O)[C@H](Cc1c[nH]cn1)NC(=O)[C@H](C)NC(=O)[C@H](CC(C)C)NC(=O)[C@H](CCCNC(=N)N)NC(=O)[C@H](CCC(=O)O)NC(=O)[C@@H](NC(=O)[C@H](C)NC(=O)[C@@H]1CCCNC(=O)C[C@H](NC(=O)[C@H](CCCNC(=N)N)NC(=O)CC[C@H](NC(=O)CC[C@H](NC(=O)CCCCCCCCCCCCCCCCCCC(=O)O)C(=O)O)C(=O)O)C(=O)NCC(=O)N[C@@H]([C@@H](C)O)C(=O)N[C@@H](C)C(=O)N[C@@H]([C@@H](C)O)C(=O)N1)[C@@H](C)O [Compound 4, [19CD]-isoGlu-isoGlu-RD()GTAT-Orn()-ATERLAHFLQRSSF-Gly(Me)-A-Ile(Me)-LSSTEVGSNT-Hyp-NH2] ({C20 diacid-γGlu-γGlu}-RDGTAT[Orn]ATERLAHFLQRSSF[Sar]A[NMeI]LSSTEVGSNT[Hyp]-NH2; lactam 2-7)	4.6%	34%	–	–
–	–	–	–	–	–	–	–	–	–	–	–	^2,7cyclo-[2Asp,7Lys]-h-amylin	–	–	considerably lower potency	–
–	–	–	–	–	–	–	–	–	–	–	–	CC[C@H](C)[C@H](NC(=O)[C@@H]1CCCN1C(=O)CNC(=O)[C@H](Cc1ccccc1)NC(=O)[C@H](CC(N)=O)NC(=O)[C@H](CC(N)=O)NC(=O)[C@H](CO)NC(=O)[C@H](CO)NC(=O)[C@H](Cc1c[nH]cn1)NC(=O)[C@@H](NC(=O)[C@H](CC(C)C)NC(=O)[C@H](Cc1ccccc1)NC(=O)[C@H](CC(N)=O)NC(=O)[C@H](C)NC(=O)[C@H](CC(C)C)NC(=O)[C@H](CCCNC(=N)N)NC(=O)[C@H](CCC(N)=O)NC(=O)[C@@H](NC(=O)[C@H](C)NC(=O)[C@@H]1CSSC[C@H](NC(=O)[C@@H](N)CCCCN)C(=O)N[C@@H](CC(N)=O)C(=O)N[C@@H]([C@@H](C)O)C(=O)N[C@@H](C)C(=O)N[C@@H]([C@@H](C)O)C(=O)N1)[C@@H](C)O)C(C)C)C(=O)N[C@@H](CC(C)C)C(=O)N1CCC[C@H]1C(=O)N1CCC[C@H]1C(=O)N[C@H](C(=O)N[C@@H](CC(N)=O)C(=O)N[C@H](C(=O)NCC(=O)N[C@@H](CO)C(=O)N[C@@H](CC(N)=O)C(=O)N[C@H](C(=O)N[C@@H](Cc1ccc(O)cc1)C(N)=O)[C@@H](C)O)C(C)C)[C@@H](C)O [pramlintide]	–	–	–	reduce body weight or reduce weight gain
0.035 nM	21.3 h	<1%	–	3.2%	1.0%	1.2%	–	FND	FND	FD	0.081 nM	CC[C@H](C)[C@@H](C(=O)N[C@@H](CC(C)C)C(=O)N[C@@H](CO)C(=O)N[C@@H](CO)C(=O)N[C@H](C(=O)N[C@@H](CCC(=O)O)C(=O)N[C@H](C(=O)NCC(=O)N[C@@H](CO)C(=O)N[C@@H](CC(N)=O)C(=O)N[C@H](C(=O)N1C[C@H](O)C[C@H]1C(N)=O)[C@@H](C)O)C(C)C)[C@@H](C)O)N(C)C(=O)[C@H](C)NC(=O)CN(C)C(=O)[C@H](Cc1ccccc1)NC(=O)[C@H](CO)NC(=O)[C@H](CO)NC(=O)[C@H](CCCNC(=N)N)NC(=O)[C@H](CCC(N)=O)NC(=O)[C@H](CC(C)C)NC(=O)[C@H](Cc1ccccc1)NC(=O)[C@H](Cc1c[nH]cn1)NC(=O)[C@H](C)NC(=O)[C@H](CC(C)C)NC(=O)[C@H](CCCNC(=N)N)NC(=O)[C@H](CCC(=O)O)NC(=O)[C@@H](NC(=O)[C@H](C)NC(=O)[C@@H]1CCCNC(=O)C[C@H](NC(=O)[C@H](CCCNC(=N)N)NC(=O)CC[C@H](NC(=O)CCCCCCCCCCCCCCCCCCC(=O)O)C(=O)O)C(=O)NCC(=O)N[C@@H]([C@@H](C)O)C(=O)N[C@@H](C)C(=O)N[C@@H]([C@@H](C)O)C(=O)N1)[C@@H](C)O [Compound 3, [19CD]-isoGlu-RD()GTAT-Orn()-ATERLAHFLQRSSF-Gly(Me)-A-Ile(Me)-LSSTEVGSNT-Hyp-NH2] ({C20 diacid-γGlu}-RDGTAT[Orn]ATERLAHFLQRSSF[Sar]A[NMeI]LSSTEVGSNT[Hyp]-NH2; lactam 2-7)	5.6%	34%	–	–
